Values quoted from earlier work, collected in US4733002A, “Lipoxygenase inhibitor” (Green Cross Corporation, priority 1984, dated 1988).

Test system: 5-lipoxygenase
Conditions: prior art, statement in words

Structure (SMILES)	5-lipoxygenase inhibiting activity
O=C(O)/C=C/c1ccc(O)c(O)c1 [caffeic acid]	not a satisfactory one
COC(=O)C=Cc1ccc(O)c(O)c1 [its methyl ester]	not a satisfactory one
